The term Kd denotes the free concentration of one partner at which half of the binding sites on the other are occupied at equilibrium, for simple one-to-one binding. A lower Kd goes with tighter binding.

This is an account of results in PMC8179679 (Chemical Science, 2021).

The subject of assay [1] is MDM2. The conditions noted are these: method not stated; cited from earlier work.
Assay [2] deals with E5-p53TAD1/MDM2 interaction. The conditions noted are these: for number of translocation events, % of free E5-p53TAD1 peptide: molar ratio 1 : 3 : 5; for number of translocation events N after inhibitor addition: molar ratio 1 : 3 : 5 (peptide : MDM2 : inhibitor), 10 min-current trace.
Assay [3] has as its target MDM2 (residues 3–109) (Homo sapiens, UniProt Q00987). The assay is described as follows: aerolysin nanopore detection of peptide/MDM2 interaction. It is filed as binding.
In assay [4] the target is aerolysin nanopore (Aeromonas hydrophila, UniProt P09167). The assay is described as follows: aerolysin nanopore single-channel recording of free analyte.
aerolysin nanopore, sequence (P09167 24-445 limits assumed): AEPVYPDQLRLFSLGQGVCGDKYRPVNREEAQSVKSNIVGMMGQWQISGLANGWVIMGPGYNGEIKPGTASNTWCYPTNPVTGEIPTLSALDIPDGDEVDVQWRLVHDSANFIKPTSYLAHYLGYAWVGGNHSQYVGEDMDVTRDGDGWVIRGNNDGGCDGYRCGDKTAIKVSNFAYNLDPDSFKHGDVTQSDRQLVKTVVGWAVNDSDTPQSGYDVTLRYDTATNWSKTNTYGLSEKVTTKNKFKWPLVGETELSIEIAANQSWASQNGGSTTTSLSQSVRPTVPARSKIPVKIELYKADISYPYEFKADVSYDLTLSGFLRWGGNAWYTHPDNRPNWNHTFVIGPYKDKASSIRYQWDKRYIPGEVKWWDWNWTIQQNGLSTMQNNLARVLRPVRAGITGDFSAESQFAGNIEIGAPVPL

Where no end group is shown, it is not given here. Bounds are passed on as bounds.

MDM2 (residues 3–109), sequence (Q00987 3-109): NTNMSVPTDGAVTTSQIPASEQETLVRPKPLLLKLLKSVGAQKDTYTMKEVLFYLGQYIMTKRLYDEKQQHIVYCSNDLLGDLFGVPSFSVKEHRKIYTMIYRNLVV

As to `CN[C@@H](C)C(=O)N[C@H](C(=O)N1CCC[C@H]1c1nc(C(=O)c2ccc(F)cc2)cs1)C1CCCCC1` [LCL161], in assay [1], the “MDM2 binding (in words)” value is “does not bind to MDM2”.
With `COc1ccc(C2=N[C@@H](c3ccc(Cl)cc3)[C@@H](c3ccc(Cl)cc3)N2C(=O)N2CCNC(=O)C2)c(OC(C)C)c1` [Nutlin-3], in assay [2], the “number of translocation events, % of free E5-p53TAD1 peptide” value is on record as ~61.3% and the “number of translocation events N after inhibitor addition” value stood at 965.
On to `CC(C)[C@@H](CS(=O)(=O)C(C)C)N1C(=O)[C@@](C)(CC(=O)O)C[C@H](c2cccc(Cl)c2)[C@H]1c1ccc(Cl)cc1` [AMG232], for which, in assay [2], the “number of translocation events, % of free E5-p53TAD1 peptide” value is reported as ~99.8% and the “number of translocation events N after inhibitor addition” value worked out at 1570.
Consider EEEEESQETFSDLWKLLPEN [E5-p53TAD1], for which the Kd in assay [3] amounted to 1070 ± 90 nM. Also, the “dwell time of extraordinarily long-lived current blockage” value in assay [3] (E5-p53TAD1/MDM2 complex, 140 mV) is on record as 0.1 s ∼ tens of min. The “number of nanopore events N” value in assay [4] (free E5-p53TAD1 peptide, 10 min-current trace) is reported as 1573. Further, in assay [4] (free peptide), the “dwell time of short-lived translocation / nanopore events” value is on record as < 10^2 ms. For the same compound, the “mean dwell time td” value in assay [4] (free peptide, 140 mV, single exponential fit) is ~0.8 ms.
